Data as given in publication PMC8382845, “High-content image-based analysis and proteomic profiling identifies Tau phosphorylation inhibitors in a human iPSC-derived glutamatergic neuronal model of tauopathy” (Scientific Reports, 2021).

Biological target: T1, GSK3α (Homo sapiens, UniProt P49840)
T1 construct: gene GSK3A
T1 sequence (P49840 2-483): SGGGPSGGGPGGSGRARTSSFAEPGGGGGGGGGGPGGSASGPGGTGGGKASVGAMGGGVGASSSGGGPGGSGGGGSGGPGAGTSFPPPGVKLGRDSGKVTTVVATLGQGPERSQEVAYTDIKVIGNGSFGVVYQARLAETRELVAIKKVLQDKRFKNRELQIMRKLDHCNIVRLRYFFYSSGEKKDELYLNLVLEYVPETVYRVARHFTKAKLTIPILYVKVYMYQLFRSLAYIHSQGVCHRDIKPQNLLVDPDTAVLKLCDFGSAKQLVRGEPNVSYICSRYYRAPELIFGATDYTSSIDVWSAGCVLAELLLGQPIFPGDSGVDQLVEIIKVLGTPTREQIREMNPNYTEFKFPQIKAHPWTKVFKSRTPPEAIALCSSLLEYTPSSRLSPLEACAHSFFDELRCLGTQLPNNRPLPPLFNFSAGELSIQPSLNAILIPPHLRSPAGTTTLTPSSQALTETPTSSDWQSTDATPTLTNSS

## Cc1c[nH]c(-c2cnc(NCCNc3ccc(C#N)cn3)nc2-c2ccc(Cl)cc2Cl)n1 [CHIR-99021]
  MIB-MS chemoproteomic competition (loss of kinase binding to inhibitor beads) af: This effect of CHIR-99021 was similar between the two GSK isoforms, GSK3α and GSK3β (Fig. 5C) in both NPC and neurons
